Biological target: human NaV 1.8 (Homo sapiens, UniProt Q9Y5Y9)
Assay: E-VIPR Assay Detecting and Measuring NaV Inhibition Properties
Type: cell-based
Conditions: HEK cells expressing a truncated form of human NaV 1.8
Description: Sodium ion channels are voltage-dependent proteins that can be activated by inducing membrane voltage changes by applying electric fields. The electrical stimulation instrument and methods of use, referred to as E-VIPR, are described in International Publication No. WO 2002/008748 A3 and C.-J. Huang et al. Characterization of voltage-gated sodium channel blockers by electrical stimulation and fluorescence detection of membrane potential, 24 Nature Biotech. 439-46 (2006), both of which are incorporated by reference in their entirety. The instrument comprises a microtiter plate handler, an optical system for exciting the coumarin dye while simultaneously recording the coumarin and oxonol emissions, a waveform generator, a current- or voltage-controlled amplifier, and parallel electrode pairs that are inserted into assay plate wells. Under integrated computer control, this instrument passes user-programmed electrical stimulus protocols to cells within the wells of the microtiter plate.
16-20 hours prior to running the assay on E-VIPR, HEK cells expressing a truncated form of human NaV 1.8 with full channel activity were seeded into microtiter 384-well plates, pre-coated with matrigel, at a density of 25,000 cells per well. 2.5-5% KIR2.1 Bacmam virus was added to the final cell suspension before seeding into cell plates. HEK cells were grown in Dulbecco's Modified Eagle's Medium (DMEM) supplemented with 10% FBS (Fetal Bovine Serum, qualified; Sigma #F4135), 1% NEAA (Non-Essential Amino Acids, Gibco #11140), 1% HEPES (Gibco #15630), 1% Pen-Strep (Penicillin-Streptomycin; Gibco #15140) and 5 μg/ml Blasticidin (Gibco #R210-01). Cells were expanded in vented cap cell culture flasks, with 90-95% humidity and 5% CO2.
Reagents and Stock Solutions:
• 100 mg/mL Pluronic F-127 (Sigma #P2443), in dry DMSO • Compound Plates: Corning 384-well Polypropylene Round Bottom #3656 • Cell Plates: 384-well tissue culture treated plates (Greiner #781091-2B)
2.5-5% KIR 2.1 Bacmam virus (produced in-house), prepared as described in Section 3.3 of J. A. Fornwald et al., Gene Expression in Mammalian Cells Using BacMam, a Modified Baculovirus System, 1350 Methods in Molecular Biology 95-116 (2016), the entire contents of which are incorporated by reference. The concentration used can be dependent on viral titer of each batch.
5 mM DiSBAC6(3), a voltage sensitive oxonol acceptor (CAS number 169211-44-3; 5-[3-(1,3-dihexylhexahydro-4,6-dioxo-2-thioxo-5-pyrimidinyl)-2-propen-1-ylidene]-1,3-dihexyldihydro-2-thioxo-4,6(1H,5H)-pyrimidinedione), in dry DMSO. The preparation of DiSBAC6(3) is analogous to that of DiSBAC4(3) as described in Voltage Sensing by Fluorescence Resonance Energy Transfer in Single Cells, Gonzalez, J. E. and Tsien, R. Y. (1995) Biophys. J. 69, 1272-1280.
5 mM CC2-DMPE, a commercially available membrane-bound coumarin phospholipid FRET donor (ThermoFisher Scientific catalog number K1017, CAS number 393782-57-5; tetradecanoic acid, 1,1′-[(1R)-1-[8-(6-chloro-7-hydroxy-2-oxo-2H-1-benzopyran-3-yl)-3-hydroxy-3-oxido-8-oxo-2,4-dioxa-7-aza-3-phosphaoct-1-yl]-1,2-ethanediyl] ester) was prepared in dry DMSO. See also, Improved indicators of cell membrane potential that use fluorescence resonance energy transfer, Gonzalez, J. E. and Tsien, R. Y. (1997) Chem. Biol. 4, 269-277.
Voltage Assay Background Suppression Compound (VABSC-1) is prepared in H2O (89-363 mM, range used to maintain solubility)
Human Serum (HS, Millipore #S1P1-01KL, or Sigma SLBR5469V and SLBR5470V as a 50%/50% mixture, for 25% assay final concentration)
• Sodium Chloride 160 mM (9.35 g/L), Potassium Chloride, 4.5 mM (0.335 g/L), Glucose 10 mM (1.8 g/L), Magnesium Chloride (Anhydrous) 1 mM (0.095 g/L), Calcium Chloride 2 mM (0.222 g/L), HEPES 10 mM (2.38 g/L) in water. […]

[1] = compound number without "*" (not marked as run in the presence of human serum)
[2] = compound number with "*": assay performed in the presence of human serum

human NaV 1.8, sequence (Q9Y5Y9 126-1722 limits assumed): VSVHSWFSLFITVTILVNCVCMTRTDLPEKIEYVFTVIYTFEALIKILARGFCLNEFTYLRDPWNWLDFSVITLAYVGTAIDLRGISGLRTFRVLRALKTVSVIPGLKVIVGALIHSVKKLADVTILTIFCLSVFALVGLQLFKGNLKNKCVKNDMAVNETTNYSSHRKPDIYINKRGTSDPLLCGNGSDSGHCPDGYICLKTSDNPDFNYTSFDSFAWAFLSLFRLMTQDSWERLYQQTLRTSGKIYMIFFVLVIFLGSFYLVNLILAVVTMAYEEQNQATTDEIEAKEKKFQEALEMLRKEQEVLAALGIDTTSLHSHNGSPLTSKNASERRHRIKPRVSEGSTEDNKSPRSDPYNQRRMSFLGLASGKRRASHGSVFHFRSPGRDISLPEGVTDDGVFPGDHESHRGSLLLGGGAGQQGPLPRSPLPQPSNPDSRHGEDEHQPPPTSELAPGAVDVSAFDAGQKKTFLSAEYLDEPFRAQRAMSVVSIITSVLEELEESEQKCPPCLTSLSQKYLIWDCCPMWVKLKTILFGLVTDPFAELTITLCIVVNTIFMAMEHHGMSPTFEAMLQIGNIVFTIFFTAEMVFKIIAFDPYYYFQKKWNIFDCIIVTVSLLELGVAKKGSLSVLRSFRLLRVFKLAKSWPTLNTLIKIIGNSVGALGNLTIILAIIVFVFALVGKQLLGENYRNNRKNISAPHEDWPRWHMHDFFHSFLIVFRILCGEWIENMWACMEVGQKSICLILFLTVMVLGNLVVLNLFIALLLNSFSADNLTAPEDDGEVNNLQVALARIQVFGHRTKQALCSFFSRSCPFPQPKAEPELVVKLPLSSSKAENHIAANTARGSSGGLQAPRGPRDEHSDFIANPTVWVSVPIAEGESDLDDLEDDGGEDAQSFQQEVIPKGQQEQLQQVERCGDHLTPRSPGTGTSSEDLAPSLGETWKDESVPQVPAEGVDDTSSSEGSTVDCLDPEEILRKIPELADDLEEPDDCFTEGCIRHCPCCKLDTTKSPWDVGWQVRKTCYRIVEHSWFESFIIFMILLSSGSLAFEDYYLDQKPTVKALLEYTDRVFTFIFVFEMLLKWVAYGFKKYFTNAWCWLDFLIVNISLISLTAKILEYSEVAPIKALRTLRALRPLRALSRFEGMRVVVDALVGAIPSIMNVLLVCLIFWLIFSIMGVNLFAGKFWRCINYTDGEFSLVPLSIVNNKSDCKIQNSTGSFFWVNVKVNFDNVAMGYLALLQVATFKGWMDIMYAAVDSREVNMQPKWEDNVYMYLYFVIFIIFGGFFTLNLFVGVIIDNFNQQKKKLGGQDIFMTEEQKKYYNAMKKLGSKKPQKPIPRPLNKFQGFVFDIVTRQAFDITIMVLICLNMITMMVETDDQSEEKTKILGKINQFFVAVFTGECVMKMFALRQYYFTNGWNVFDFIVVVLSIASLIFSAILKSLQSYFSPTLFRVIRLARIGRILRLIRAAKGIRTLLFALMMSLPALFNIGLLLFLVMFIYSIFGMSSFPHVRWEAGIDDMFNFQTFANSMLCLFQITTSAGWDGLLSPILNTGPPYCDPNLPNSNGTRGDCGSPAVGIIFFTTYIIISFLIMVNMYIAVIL

Compound	IC50 [1]	IC50 [2]
COc1c([C@H]2[C@H](C(=O)Nc3ccnc(C(N)=O)c3)O[C@@](C)(C(F)(F)F)[C@H]2OC)ccc(F)c1C [Compound 5, 4-((2R,3R,4S,5R)-3-(4-fluoro-2-methoxy-3-methylphenyl)-4-methoxy-5-methyl-5-(trifluoromethyl)tetrahydrofuran-2-carboxamido)picolinamide]	< 10 nM	–
COc1c([C@H]2[C@H](C(=O)Nc3ccc([C@@H](O)CO)nc3)O[C@@](C)(C(F)(F)F)[C@H]2OC)ccc(F)c1C [Compound 6, (2R,3R,4S,5R)-N-(6-((R)-1,2-dihydroxyethyl)pyridin-3-yl)-3-(4-fluoro-2-methoxy-3-methylphenyl)-4-methoxy-5-methyl-5-(trifluoromethyl)tetrahydrofuran-2-carboxamide]	10 to 100 nM	–
COc1c([C@H]2[C@H](C(=O)Nc3ccnnc3)O[C@@](C)(C(F)(F)F)[C@H]2OC)ccc(F)c1C [Compound 4, (2R,3R,4S,5R)-3-(4-fluoro-2-methoxy-3-methylphenyl)-4-methoxy-5-methyl-N-(pyridazin-4-yl)-5-(trifluoromethyl)tetrahydrofuran-2-carboxamide]	< 10 nM	–
COc1c([C@@H]2[C@H](OC)[C@H](C)O[C@H]2C(=O)Nc2ccnc([C@](C)(O)CO)c2)ccc(F)c1F (single isomer, unassigned) [Compound 12, rel-(2R*,3R*,4S*,5S*)-3-(3,4-difluoro-2-methoxyphenyl)-N-(2-(1,2-dihydroxypropan-2-yl)pyridin-4-yl)-4-methoxy-5-methyltetrahydrofuran-2-carboxamide]	–	≥ 1000 nM
COc1c([C@@H]2[C@H](OC)[C@H](C)O[C@H]2C(=O)Nc2ccnc([C@@H](O)CO)c2)ccc(F)c1F (single isomer, unassigned) [Compound 9, rel-(2R*,3R*,4S*,5S*)-3-(3,4-difluoro-2-methoxyphenyl)-N-(2-(1,2-dihydroxyethyl)pyridin-4-yl)-4-methoxy-5-methyltetrahydrofuran-2-carboxamide]	–	≥ 1000 nM
COc1c([C@H]2[C@H](C(=O)Nc3ccnc(C(N)=O)c3)O[C@@](C)(C(F)(F)F)[C@H]2O)ccc(F)c1F [Compound 2, 4-((2R,3R,4S,5R)-3-(3,4-difluoro-2-methoxyphenyl)-4-hydroxy-5-methyl-5-(trifluoromethyl)tetrahydrofuran-2-carboxamido)picolinamide]	100 to 1000 nM	–
CCO[C@H]1[C@@H](c2ccc(F)c(F)c2OC)[C@H](C(=O)Nc2ccnc(C(N)=O)c2)O[C@H]1C [Compound 13, 4-((2R,3R,4S,5S)-3-(3,4-difluoro-2-methoxyphenyl)-4-ethoxy-5-methyltetrahydrofuran-2-carboxamido)picolinamide]	100 to 1000 nM	–
COc1c([C@H]2[C@H](C(=O)Nc3ccnnc3)O[C@@](C)(C(F)(F)F)[C@H]2O)ccc(F)c1F [Compound 3, (2R,3R,4S,5R)-3-(3,4-difluoro-2-methoxyphenyl)-4-hydroxy-5-methyl-N-(pyridazin-4-yl)-5-(trifluoromethyl)tetrahydrofuran-2-carboxamide]	≥ 1000 nM	–
COc1c([C@@H]2[C@H](OC)[C@H](C)O[C@H]2C(=O)Nc2ccnc([C@H](O)CO)c2)ccc(F)c1F (single isomer, unassigned) [Compound 10, rel-(2R*,3R*,4S*,5S*)-3-(3,4-difluoro-2-methoxyphenyl)-N-(2-(1,2-dihydroxyethyl)pyridin-4-yl)-4-methoxy-5-methyltetrahydrofuran-2-carboxamide]	–	≥ 1000 nM
COc1c([C@H]2[C@H](C(=O)Nc3ccnc(C(N)=O)c3)O[C@@](C)(C(F)(F)F)[C@H]2OC)ccc(F)c1F [Compound 1, 4-((2R,3R,4S,5R)-3-(3,4-difluoro-2-methoxyphenyl)-4-methoxy-5-methyl-5-(trifluoromethyl)tetrahydrofuran-2-carboxamido)picolinamide]	< 10 nM	–
COc1c([C@@H]2[C@H](OC(C)C)[C@H](C)O[C@H]2C(=O)Nc2ccnc(C(N)=O)c2)ccc(F)c1F [Compound 14, 4-((2R,3R,4S,5S)-3-(3,4-difluoro-2-methoxyphenyl)-4-isopropoxy-5-methyltetrahydrofuran-2-carboxamido)picolinamide]	100 to 1000 nM	–

Further lines, results first:

IC50 [1]	IC50 [2]	Compound
≥ 1000 nM	–	COc1c([C@@H]2[C@H](OC(C)C)[C@H](C)O[C@H]2C(=O)Nc2ccc(CO)nc2)ccc(F)c1F [Compound 17, (2R,3R,4S,5S)-3-(3,4-difluoro-2-methoxyphenyl)-N-(6-(hydroxymethyl)pyridin-3-yl)-4-isopropoxy-5-methyltetrahydrofuran-2-carboxamide]
–	100 to 1000 nM	COc1c([C@H]2[C@H](C(=O)Nc3ccnc([C@@H](O)CO)c3)OC(C)(C)[C@H]2OC)ccc(F)c1F (single isomer, unassigned) [Compound 20]
≥ 1000 nM	–	COc1c([C@@H]2[C@H](OC(C)C)[C@H](C)O[C@H]2C(=O)Nc2ccc(C(N)=O)nc2)ccc(F)c1F [Compound 15, 5-((2R,3R,4S,5S)-3-(3,4-difluoro-2-methoxyphenyl)-4-isopropoxy-5-methyltetrahydrofuran-2-carboxamido)picolinamide]
–	≥ 1000 nM	COc1c([C@@H]2[C@@H](C(=O)Nc3ccnc(C(N)=O)c3)OC(C)(C)[C@@H]2OC)ccc(F)c1F (stereo in doubt) [Compound 19, rel-4-((2S,3S,4R)-3-(3,4-difluoro-2-methoxyphenyl)-4-methoxy-5,5-dimethyltetrahydrofuran-2-carboxamido)picolinamide]
–	≥ 1000 nM	COc1c([C@@H]2[C@@H](C(=O)Nc3ccnc([C@@H](O)CO)c3)OC(C)(C)[C@@H]2OC)ccc(F)c1F (single isomer, unassigned) [Compound 21]
< 10 nM	–	CCO[C@H]1[C@@H](c2ccc(F)c(F)c2OC)[C@H](C(=O)Nc2ccnc(C(N)=O)c2)O[C@@]1(C)C(F)(F)F [Compound 25, 4-((2R,3R,4S,5R)-3-(3,4-difluoro-2-methoxyphenyl)-4-ethoxy-5-methyl-5-(trifluoromethyl)tetrahydrofuran-2-carboxamido)picolinamide]
≥ 1000 nM	–	COc1c([C@@H]2[C@H](OC(C)C)[C@H](C)O[C@H]2C(=O)Nc2ccc([C@@H](O)CO)nc2)ccc(F)c1F [Compound 16, (2R,3R,4S,5S)-3-(3,4-difluoro-2-methoxyphenyl)-N-(6-((R)-1,2-dihydroxyethyl)pyridine-3-yl)-4-isopropoxy-5-methyltetrahydrofuran-2-carboxamide]
–	≥ 1000 nM	COc1c([C@@H]2[C@@H](C(=O)Nc3ccnc([C@H](O)CO)c3)OC(C)(C)[C@@H]2OC)ccc(F)c1F (single isomer, unassigned) [Compound 23]
< 10 nM	–	COc1c([C@@H]2[C@H](OC)[C@H](C(C)C)O[C@H]2C(=O)Nc2ccnc(C(N)=O)c2)ccc(F)c1F [Compound 24, 4-((2R,3R,4S,5S)-3-(3,4-difluoro-2-methoxyphenyl)-5-isopropyl-4-methoxytetrahydrofuran-2-carboxamido)picolinamide]
10 to 100 nM	–	COc1c([C@H]2[C@H](C(=O)Nc3ccnc(C(N)=O)c3)OC(C)(C)[C@H]2OC)ccc(F)c1F (stereo in doubt) [Compound 18, rel-4-((2R,3R,4S)-3-(3,4-difluoro-2-methoxyphenyl)-4-methoxy-5,5-dimethyltetrahydrofuran-2-carboxamido)picolinamide]

Reference: patent publication US12662470B2, “Hydroxy and (halo)alkoxy substituted tetrahydrofurans as modulators of sodium channels” (VERTEX PHARMACEUTICALS INCORPORATED, priority 2021, dated 2026)
